Measured values from patent publication US11045457B2, “Piperidinyl-3-(aryloxy)propanamides and propanoates” (priority 2018, dated 2021).

These compounds were tested against SSTR4 (Homo sapiens (Human), UniProt P31391) (assay: Inhibition of forskolin stimulated cAMP in CHO-K1 cells overexpressing SSTR4). Settings: not given.
Type: cell-based
Description: Inhibition of Forskolin Stimulated cAMP in Cells Overexpressing SSTR4
This cell-based assay measures the ability of compounds to inhibit forskolin stimulated cAMP in CHO-K1 cells overexpressing SSTR4. CHO-K1 cells overexpressing SSTR4 (CHO-SSTR4) are purchased from DiscoveRx (product code 95-0059C2). The CHO-SSTR4 cells are maintained in F12K media with 10% Fetal Bovine Serum (Hyclone), 1% Pen/Strep (Life Technologies), and 800 μg/mL G418 (Life Technologies). […] The next day, the culture media is removed from the cells and the cells are washed (added then removed) with Kreb's Ringer Buffer (ZenBio, KRB-1000 mL). […] The cells are incubated in […] for 30 minutes at room temperature. Cellular cAMP levels are detected with a HTRF LANCE Ultra cAMP kit (Perkin Elmer, catalog number TRF0264).
The assay is performed in accordance with the manufacturer's instructions. Five μL of diluted Eu-W8044 labeled streptavidin (dilution: 1:50 in cAMP Detection Buffer) is added to each well. Then 5 μL of diluted biotin cAMP (dilution: 1:150 in cAMP Detection Buffer) is added to each well. The plates are covered and allowed to incubate for 60 minutes at room temperature on a shaker. […] The pEC50 values are generated using Activity Base for Screening Data Management.

SSTR4, sequence (P31391 whole entry): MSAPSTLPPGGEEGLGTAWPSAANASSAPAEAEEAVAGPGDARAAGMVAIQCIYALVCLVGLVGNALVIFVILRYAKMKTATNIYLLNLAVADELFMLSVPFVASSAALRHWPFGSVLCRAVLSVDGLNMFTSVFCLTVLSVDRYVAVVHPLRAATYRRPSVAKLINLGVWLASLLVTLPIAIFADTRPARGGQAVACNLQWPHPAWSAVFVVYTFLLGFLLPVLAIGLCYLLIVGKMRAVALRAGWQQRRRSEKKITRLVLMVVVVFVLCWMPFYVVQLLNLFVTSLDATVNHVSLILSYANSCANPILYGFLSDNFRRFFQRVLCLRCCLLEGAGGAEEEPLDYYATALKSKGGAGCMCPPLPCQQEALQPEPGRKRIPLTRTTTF

Row | Structure (SMILES) | SSTR4 Activity pEC50
1 | CN1CCC(NC(=O)C(C)(C)COc2ccncc2C(F)(F)F)CC1 [Example 43, 2,2-dimethyl-N-(1-methylpiperidin-4-yl)-3-((3-(trifluoromethyl)pyridin-4-yl)oxy)propanamide] | 6.9
2 | CN1CCC(NC(=O)C(C)(C)COc2cccc3c2CCC3)CC1 [Example 79, 3-((2,3-dihydro-1H-inden-4-yl)oxy)-2,2-dimethyl-N-(1-methylpiperidin-4-yl)propanamide] | 7.0
3 | CCc1nccnc1OCC(C)(C)C(=O)NC1CCN(C)CC1 [Example 87, 3-((3-ethylpyrazin-2-yl)oxy)-2,2-dimethyl-N-(1-methylpiperidin-4-yl)propanamide] | 6.4
4 | Cc1cccnc1OCC(C)(C)C(=O)N[C@@H]1CCN(C)C[C@H]1C [Example 142, N-((3R,4R)-1,3-dimethylpiperidin-4-yl)-2,2-dimethyl-3-((3-methylpyridin-2-yl)oxy)propanamide] | 6.1
5 | CN1CC[C@@H](CNC(=O)C(C)(C)COc2ncccc2C(F)(F)F)C1 [Example 37, (S)-2,2-dimethyl-N-((1-methylpyrrolidin-3-yl)methyl)-3-((3-(trifluoromethyl)pyridin-2-yl)oxy)propanamide] | 6.3
6 | Cc1cnc(OCC(C)(C)C(=O)NC2CCN(C)CC2)c(C2CC2)c1 [Example 6, 3-((3-cyclopropyl-5-methylpyridin-2-yl)oxy)-2,2-dimethyl-N-(1-methylpiperidin-4-yl)propanamide] | 7.3
7 | CN1CCC(NC(=O)C(C)(C)COc2ccccc2F)CC1 [Example 195, 3-(2-fluorophenoxy)-2,2-dimethyl-N-(1-methylpiperidin-4-yl)propanamide] | 6.5
8 | Cc1cc(C2CC2)cnc1OCC(C)(C)C(=O)NC1CCN(C)CC1 [Example 8, 3-((5-cyclopropyl-3-methylpyridin-2-yl)oxy)-2,2-dimethyl-N-(1-methylpiperidin-4-yl)propanamide] | 7.0
9 | CN1CC[C@@H](NC(=O)C(C)(C)COc2ncccc2C(F)(F)F)[C@H](c2ccccc2)C1 (relative stereo) [Example 164, 2,2-dimethyl-N-(trans-1-methyl-3-phenylpiperidin-4-yl)-3-((3-(trifluoromethyl)pyridin-2-yl)oxy)propanamide] | 6.6
10 | Cc1cccnc1OCC(C)(C)C(=O)NC1CCN(C)C1 (centres unmarked) [Example 2, 2,2-dimethyl-3-((3-methylpyridin-2-yl)oxy)-N-(1-methylpyrrolidin-3-yl)propanamide] | 6.3
11 | CN1CC[C@@H](NC(=O)C(C)(C)COc2ncncc2C2CC2)C1 [Example 4, (R)-3-((5-cyclopropylpyrimidin-4-yl)oxy)-2,2-dimethyl-N-(1-methylpyrrolidin-3-yl)propanamide] | 6.5
12 | Cc1cnc(OCC(C)(C)C(=O)N[C@@H]2CCN(C)C2)c(C2CC2)c1 [Example 7, (R)-3-((3-cyclopropyl-5-methylpyridin-2-yl)oxy)-2,2-dimethyl-N-(1-methylpyrrolidin-3-yl)propanamide] | 7.2
13 | CC(C)[C@@H]1CN(C)CC[C@@H]1NC(=O)C(C)(C)COc1ncccc1C(F)(F)F (relative stereo) [Example 34, cis-N-(3-isopropyl-1-methylpiperidin-4-yl)-2,2-dimethyl-3-((3-(trifluoromethyl)pyridin-2-yl)oxy)propanamide] | 6.1
14 | Cc1ccc(C)c(OCC(C)(C)C(=O)NC2CCN(C)CC2)n1 [Example 83, 3-((3,6-dimethylpyridin-2-yl)oxy)-2,2-dimethyl-N-(1-methylpiperidin-4-yl)propanamide] | 7.3
15 | Cc1cccnc1OCC(C)(C)C(=O)N[C@H]1CN(C)CC12CC2 [Example 153, (R)-2,2-dimethyl-N-(5-methyl-5-azaspiro[2.4]heptan-7-yl)-3-((3-methylpyridin-2-yl)oxy)propanamide] | 8.1
16 | Cc1cc(C(F)(F)F)cnc1OCC(C)(C)C(=O)NC1CCN(C)CC1 [Example 91, 2,2-dimethyl-3-((3-methyl-5-(trifluoromethyl)pyridin-2-yl)oxy)-N-(1-methylpiperidin-4-yl)propanamide] | 6.0
17 | C[C@@H]1CN(C)CC[C@H]1NC(=O)C(F)(F)COc1ncccc1C(F)(F)F (relative stereo) [Example 189, trans-N-(1,3-dimethylpiperidin-4-yl)-2,2-difluoro-3-((3-(trifluoromethyl)pyridin-2-yl)oxy)propanamide] | 6.8

The next lines start with the values.

Row | SSTR4 Activity pEC50 | Structure (SMILES)
18 | 6.2 | CN1CCC(NC(=O)C(C)(C)COc2ncccc2C(F)(F)F)CC12CC2 (centres unmarked) [Example 175, 2,2-dimethyl-N-(4-methyl-4-azaspiro[2.5]octan-7-yl)-3-((3-(trifluoromethyl)pyridin-2-yl)oxy)propanamide]
19 | 6.1 | CN1CC[C@H](CNC(=O)C(C)(C)COc2ncccc2C(F)(F)F)C1 [Example 36, (R)-2,2-dimethyl-N-((1-methylpyrrolidin-3-yl)methyl)-3-((3-(trifluoromethyl)pyridin-2-yl)oxy)propanamide]
20 | 5.9 | CN1CCC(NC(=O)C(C)(C)COc2ncccc2C(F)(F)F)C(F)C1 (centres unmarked) [Example 113, N-(3-fluoro-1-methylpiperidin-4-yl)-2,2-dimethyl-3-((3-(trifluoromethyl)pyridin-2-yl)oxy)propanamide]
21 | 6.4 | CN(C(=O)C(C)(C)COc1ncccc1C(F)(F)F)[C@H]1CCNC[C@@H]1F [Example 160, N-((3S,4S)-3-fluoropiperidin-4-yl)-N,2,2-trimethyl-3-((3-(trifluoromethyl)pyridin-2-yl)oxy)propanamide]
22 | 6.1 | CN1CCC(NC(=O)C(C)(C)COc2ncccc2C(F)(F)F)C(C)(C)C1 (centres unmarked) [Example 112, 2,2-dimethyl-3-((3-(trifluoromethyl)pyridin-2-yl)oxy)-N-(1,3,3-trimethylpiperidin-4-yl)propanamide]
23 | 6.1 | CC(C)(COc1ncccc1C(F)(F)F)C(=O)NC1CNCC1(F)F (centres unmarked) [Example 131, N-(4,4-difluoropyrrolidin-3-yl)-2,2-dimethyl-3-((3-(trifluoromethyl)pyridin-2-yl)oxy)propanamide]

Same assay, conditions: read-out: SSTR4 Activity pEC50 (converted)

Row | Structure (SMILES) | EC50 [nM]
24 | CN1C[C@@H](NC(=O)C(C)(C)COc2ncccc2C2CC2)[C@H](c2ccc(Cl)cc2)C1 (relative stereo) [Example 94, trans-N-(4-(4-chlorophenyl)-1-methylpyrrolidin-3-yl)-3-((3-cyclopropylpyridin-2-yl)oxy)-2,2-dimethylpropanamide] | 20
25 | CCc1ccccc1OCC(C)(C)C(=O)N[C@@H]1CN(C)C[C@H]1OC (relative stereo) [Example 96, trans-3-(2-ethylphenoxy)-N-(4-methoxy-1-methylpyrrolidin-3-yl)-2,2-dimethylpropanamide] | 200
26 | C[C@@H]1CN(C)CC[C@H]1NC(=O)C(F)(F)COc1ncccc1C1CC1 (relative stereo) [Example 192, trans-3-((3-cyclopropylpyridin-2-yl)oxy)-N-(1,3-dimethylpiperidin-4-yl)-2,2-difluoropropanamide] | 12.6
27 | CC(C)[C@@H]1CN(C)CC[C@H]1NC(=O)C(C)(C)COc1ncccc1C(F)(F)F (relative stereo) [Example 33, trans-N-(3-isopropyl-1-methylpiperidin-4-yl)-2,2-dimethyl-3-((3-(trifluoromethyl)pyridin-2-yl)oxy)propanamide] | 0.794
28 | CN1CC[C@@H](c2cnn(C)c2)[C@H](NC(=O)C(C)(C)COc2ncccc2C(F)(F)F)C1 (relative stereo) [Example 169, 2,2-dimethyl-N-(trans-1-methyl-4-(1-methyl-1H-pyrazol-4-yl)piperidin-3-yl)-3-((3-(trifluoromethyl)pyridin-2-yl)oxy)propanamide] | 251

Next, values leading:

Row | EC50 [nM] | Structure (SMILES)
29 | 1 | CC[C@@H]1CN(C)CC[C@H]1NC(=O)C(C)(C)COc1ncccc1C(F)(F)F (single isomer, unassigned) [Example 110, trans-N-(3-ethyl-1-methylpiperidin-4-yl)-2,2-dimethyl-3-((3-(trifluoromethyl)pyridin-2-yl)oxy)propanamide]
30 | 126 | C[C@@H]1CN(C)CC[C@@H]1NC(=O)C(C)(C)COc1ncccc1C(F)(F)F (racemic) [Example 12, cis-N-(1,3-dimethylpiperidin-4-yl)-2,2-dimethyl-3-((3-(trifluoromethyl)pyridin-2-yl)oxy)propanamide]
31 | 251 | CC(C)(COc1ncccc1C(F)(F)F)C(=O)N[C@@H]1CNC[C@H]1F (relative stereo) [Example 130, trans-N-(4-fluoropyrrolidin-3-yl)-2,2-dimethyl-3-((3-(trifluoromethyl)pyridin-2-yl)oxy)propanamide]
32 | 126 | CC[C@H]1[C@H](NC(=O)C(C)(C)COc2ncccc2C(F)(F)F)CCN1C (relative stereo) [Example 149, trans-N-(2-ethyl-1-methylpyrrolidin-3-yl)-2,2-dimethyl-3-((3-(trifluoromethyl)pyridin-2-yl)oxy)propanamide]
